# Assay results published in article PMC12434071, “Platinum-group metal half-sandwich complexes of 1-(α-D-glucopyranosyl)-4-hetaryl-1,2,3-triazoles: synthesis, solution equilibrium studies, and investigation of their anticancer and antimicrobial activities” (Frontiers in Chemistry, 2025).
# Experiments:
# [1] = pH-potentiometric titration, stability constants (logβ) of ML complexes; format: physicochemical; conditions: [(η^5-Cp*)Rh]^2+; 0.20 M KCl, 25.0°C
# Description: […]. […] Comparing the two metal ion containing systems, the complexation with [(η^6-p-cym)Ru]^2+, starts at a more acidic pH, but hydrolytic processes occur already in the physiological pH range due to the higher affinity of the metal ion to hydrolysis. For the [(η^5-Cp*)Rh]^2+, these processes are shifted towards higher pH; […].
# For solution studies, doubly deionized and ultra-filtered water was obtained from a Milli-Q RG (Millipore) water purification system. pH-potentiometric measurements were carried out at a constant ionic strength of 0.20 M KCl and at 25.0°C. Carbonate-free KOH solutions of known concentrations (ca. 0.2 M) were used as titrant. […]. A Mettler Toledo DL50 titrator equipped with a DG114-SC combined glass electrode was used for the pH-potentiometric measurements. […] The titrations were performed in the pH range of 2.0–11.0 in equilibrium-controlled mode, during which the pH equilibrium was assumed to be reached if a change in the measured potential was less than 0.1 mV within 90 s. […] The protonation constants of the ligands and the overall stability constants of the complexes, βp,q,r = [MpHqLr]/[M]^p[H]^q[L]^r (where “M” stands for [(η^5-Cp*)Rh(H2O)3]^2+ and “L” represents the completely deprotonated form of the ligand), were calculated with the aid of the SUPERQUAD ([Gans et al., 1985]) and PSEQUAD ([Zékány and Nagypál, 1985]) computer programs, respectively. […]
# [2] = pH-potentiometric titration, protonation constants (pKa) of the ligands; format: physicochemical; conditions: 0.20 M KCl, 25.0°C; N-heterocyclic ring of the ligand
# Description: In order to obtain information on the acidbase character of the ligands and on the stoichiometry and stability of the complexes present in aqueous medium, potentiometric titrations were carried out in selected systems. Based on the results, both 3a and 3b, having good enough solubility in water, are capable of releasing one hydrogen ion from the fully protonated forms in the measurable pH range (see Figure 3, “pK”). The calculated pK a values appear in Table 4; these values belong to the N-heterocyclic ring of the ligands. […]. For comparison, the previously prepared β-anomeric pair of 3a, compound 3a-β ([Kacsir et al., 2021]) in Table 4, was also studied.
# For solution studies, doubly deionized and ultra-filtered water was obtained from a Milli-Q RG (Millipore) water purification system. pH-potentiometric measurements were carried out at a constant ionic strength of 0.20 M KCl and at 25.0°C. Carbonate-free KOH solutions of known concentrations (ca. 0.2 M) were used as titrant. […]. A Mettler Toledo DL50 titrator equipped with a DG114-SC combined glass electrode was used for the pH-potentiometric measurements. […] The titrations were performed in the pH range of 2.0–11.0 in equilibrium-controlled mode, during which the pH equilibrium was assumed to be reached if a change in the measured potential was less than 0.1 mV within 90 s. […]
smiles,measurement,setting,value
"OC[C@H]1O[C@H](n2cc(-c3ccccn3)nn2)[C@H](O)[C@@H](O)[C@@H]1O [Complex 3a, 1-(α-D-Glucopyranosyl)-4-(pyridin-2-yl)-1,2,3-triazole]",logβ [ML],[1],5.50 (4)
same,pK a,[2],3.59 (1)
